From US7259172B2, “Inhibitors of β-lactamase” (priority 1999, dated 2007)
Counter-ions that a name gives are not always drawn. Like-named read-outs stand apart in the source and are kept apart here.

Assays:
[1] = target: P99 β-lactamase (class C) (Enterobacter cloacae, UniProt P05364); assay: biochemical
Experimental: Enzyme activity against the commercially available substrate, nitrocefin, was measured in the presence of various inhibitor concentrations. The P99 β-lactamase enzyme (1 mg/mL) was dissolved in 20 mM MOPS buffer at pH 7.50, and diluted 200-fold in the same buffer containing 0.1% BSA. Nitrocefin was stored as a 100 μM stock solution in 20 mM MOPS at pH 7.5. Stock solutions of test compounds were prepared in 10 mM MOPS at pH 7.5 (approximately 1 mg/mL)
The reaction at 25° C. was followed spectrophotometrically at 482 nm. IC50 values were determined from the dose-response plots of the initial rates vs. inhibitor concentration

[2] = tested on: Enterobacter cloacae [ATCC #23355]; assay type: cell-based; conditions: ratio antibiotic MIC without/with inhibitor
Text: An increasing number of organisms produce enzymes that inhibit the actions of β-lactam antibiotics, so-called β-lactamases. […] The Minimum Inhibitory Concentration (MIC) test determines the lowest concentration of an antibiotic at which no visible bacterial growth occurs. This test permits comparisons to be made between bacterial growth in the presence of antibiotic alone (control) and bacterial growth in the presence of both an antibiotic and a novel (test) compound.
(§1) Frozen bacterial stocks were thawed to room temperature, and a few drops were placed on an appropriate plate; chocolate agar was used for H. influenzae, blood agar was used for all others. The plates were incubated overnight at 37° C. in air, except for H. influenzae, which was incubated in a CO2 incubator. The cultures were subcultured the following day, and the subcultures were again incubated overnight
A sterile loop was touched to 3 colonies and used to inoculate 1 mL of Mueller-Hinton Broth (MHB). […] 5 μL of the resultant inoculum solution contained ˜4×10^4 CFU/mL. Confirmation of the inoculum was performed by preparing a serial dilution to give 100 μL of a 5000-fold dilution, all of which was then plated onto an appropriate plate.
(§2) Each plate included 2 wells with no bacterial inoculum (negative control) and 2 wells with no test compound and no antibiotic (positive control). The plate was covered and incubated with gentle shaking for 16-20 hours at 37° C. in air (CO2 for H. influenzae). Absorbance was read at 540 nm (Multiskan Titertek mcc/340). Bacterial growth was scored as follows:
(§3) In some cases, the determination of MIC in the presence of test compound was performed at more than one concentration of the test compound.
The impact of the novel β-lactamase inhibitors is expressed as the ratio of the MIC determined in the absence of β-lactamase inhibitor to the MIC determined in the presence of the specified concentration of the β-lactamase inhibitor test compound.

[3] = tested on: Haemophilus influenzae [ATCC #43163]; assay: Antibiotic MIC in presence and absence of β-lactamase inhibitor (synergy); assay type: cell-based; conditions: ratio antibiotic MIC without/with inhibitor; inhibitor 10 μg/mL
Text: (§4) An increasing number of organisms produce enzymes that inhibit the actions of β-lactam antibiotics, so-called β-lactamases. The “strength” of β-lactam antibiotics can be improved by pairing them with compounds that inhibit bacterial enzyme β-lactamases. The Minimum Inhibitory Concentration (MIC) test determines the lowest concentration of an antibiotic at which no visible bacterial growth occurs. This test permits comparisons to be made between bacterial growth in the presence of antibiotic alone (control) and bacterial growth in the presence of both an antibiotic and a novel (test) compound.
(§5) • β-lactamase positive strains • β-lactam antibiotics • β-lactamase inhibitor compounds • appropriate bacterial growth medium β-Lactamase Positive Strains • Klebsiella oxytoca [ATCC#51983] • Staphylococcus aureus [MGH: MA#50848] • Enterococcus faecalis [ATCC#49757] • Enterobacter cloacae [ATCC#23355] • Haemophilus influenzae [ATCC#43163] β-Lactam antibiotics
as §1
(§6) A sterile loop was touched to 3 colonies and used to inoculate 1 mL of Mueller-Hinton Broth (MHB). The bacterial solution was diluted 18.8-fold (20 μL of bacterial solution in […] of broth). 5 μL of the resultant inoculum solution contained ˜4×10^4 CFU/mL. Confirmation of the inoculum was performed by preparing a serial dilution to give 100 μL of a 5000-fold dilution, all of which was then plated onto an appropriate plate. After incubation overnight at 37° C., the plate had 75-150 colonies.
as §2, with “In each well of a 96-well microtiter plate was combined 5 μL of bacterial inoculum, 90 μL of antibiotic dilutions, and 5 μL of test compound (or media for determination of the MIC of the antibiotic in the absence of test compound). Each” for “Each”
as §3
(§7) The impact of the novel β-lactamase inhibitors is expressed as the ratio of the MIC determined in the absence of β-lactamase inhibitor to the MIC determined in the presence of the specified concentration of the β-lactamase inhibitor test compound. […]

[4] = tested on: Staphylococcus aureus [MGH:MA #50848]; assay: as above; assay type: cell-based; conditions: ratio antibiotic MIC without/with inhibitor; inhibitor 10 μg/mL
Text: as §4, §5, §1, §6
as §2, with “In each well of a 96-well microtiter plate was combined 5 μL of bacterial inoculum, 90 μL of antibiotic dilutions, and 5 μL of test compound (or media for determination of the MIC of the antibiotic in the absence of test compound). Each” for “Each”
as §3, §7

[5] = tested on: Enterobacter cloacae (derepressed); assay: Synergy against highly resistant β-lactamase positive strains; assay type: cell-based; conditions: derepressed strain
Experimental: as §1, §6
as §2, with “In each well of a 96-well microtiter plate was combined 5 μL of bacterial inoculum, 90 μL of antibiotic dilutions, and 5 μL of test compound (or media for determination of the MIC of the antibiotic in the absence of test compound). Each” for “Each”
as §3, §7
(§8) Following procedures identical to those described in Example 72, β-lactamase inhibitors were tested for their ability to enhance antibiotic efficacy against β-lactamase positive bacterial strains that are very highly resistant to β-lactam antibiotics.
(§9) • Enterobacter cloacae (derepressed) • Pseudomonas aeroginosa [ATCC#12470-resistant] • Stenotrophomonas maltophilia [ATCC#12968-resistant] • Pseudomonas aeroginosa [ATCC#98043010-intermediate resistance] • Stenotrophomonas maltopilia [ATCC#98043029-intermediate resistance]

[6] = tested on: Pseudomonas aeroginosa [ATCC#12470-resistant]; assay: as above; assay type: cell-based
Experimental: as §1, §6
as §2, with “In each well of a 96-well microtiter plate was combined 5 μL of bacterial inoculum, 90 μL of antibiotic dilutions, and 5 μL of test compound (or media for determination of the MIC of the antibiotic in the absence of test compound). Each” for “Each”
as §3, §7, §8, §9

[7] = tested on: Pseudomonas aeroginosa [ATCC#98043010-intermediate resistance]; assay: as above; assay type: cell-based
Experimental: as §1, §6
as §2, with “In each well of a 96-well microtiter plate was combined 5 μL of bacterial inoculum, 90 μL of antibiotic dilutions, and 5 μL of test compound (or media for determination of the MIC of the antibiotic in the absence of test compound). Each” for “Each”
as §3, §7, §8, §9

[8] = tested on: Stenotrophomonas maltophilia [ATCC#12968-resistant]; assay: as above; assay type: cell-based
Experimental: as §1, §6
as §2, with “In each well of a 96-well microtiter plate was combined 5 μL of bacterial inoculum, 90 μL of antibiotic dilutions, and 5 μL of test compound (or media for determination of the MIC of the antibiotic in the absence of test compound). Each” for “Each”
as §3, §7, §8, §9

[9] = tested on: Stenotrophomonas maltophilia [ATCC#98043029-intermediate resistance]; assay: as above; assay type: cell-based
Experimental: as §1, §6
as §2, with “In each well of a 96-well microtiter plate was combined 5 μL of bacterial inoculum, 90 μL of antibiotic dilutions, and 5 μL of test compound (or media for determination of the MIC of the antibiotic in the absence of test compound). Each” for “Each”
as §3, §7, §8, §9

[10] = Table 1
[11] = Class C β-lactamase [P99], Table 1, read-out: IC50 (μM) “C”

Chain of P99 β-lactamase (class C) (P05364 21-381): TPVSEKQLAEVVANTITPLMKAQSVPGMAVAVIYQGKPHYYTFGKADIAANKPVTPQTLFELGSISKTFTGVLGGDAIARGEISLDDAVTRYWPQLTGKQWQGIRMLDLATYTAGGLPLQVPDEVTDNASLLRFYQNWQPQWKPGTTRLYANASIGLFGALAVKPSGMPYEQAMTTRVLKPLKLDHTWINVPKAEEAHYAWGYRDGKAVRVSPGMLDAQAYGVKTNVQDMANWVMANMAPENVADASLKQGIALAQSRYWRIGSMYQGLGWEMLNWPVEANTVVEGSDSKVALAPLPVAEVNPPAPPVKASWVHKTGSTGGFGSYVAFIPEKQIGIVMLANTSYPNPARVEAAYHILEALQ

N.O=[N+]([O-])c1ccc(OP(=O)(O)C(Cc2ccccc2)NS(=O)(=O)c2cccs2)cc1 (stereo not drawn) [Compound 44, [2-Phenyl-1-(thiophene-2-sulfonylamino)-ethyl]-phosphonic acid mono-(4-nitrophenyl) ester ammonium salt]
IC50 [1]: 192 µM
Synergy Class C E. Cl ([2]; inhibitor 1 μg/mL): 2/2
Synergy Class C E. Cl ([2]; inhibitor 10 μg/mL): 2/2
Synergy Class A H. In. [3]: 1
Synergy Class A St. A. [4]: 1

N.O=P(O)(Oc1cccnc1Cl)C(Cc1ccccc1)NS(=O)(=O)c1cccs1 (stereo not drawn) [Compound 46, [2-Phenyl-1-(thiophene-2-sulfonylamino)-ethyl]-phosphonic acid mono-(2-chloropyridin-3-yl) ester ammonium salt]
IC50 [1]: 188 µM
Synergy Class C E. Cl ([2]; inhibitor 1 μg/mL): 1/1
Synergy Class C E. Cl ([2]; inhibitor 10 μg/mL): 1/1
Synergy Class A H. In. [3]: 1
Synergy Class A St. A. [4]: 1

CN(CP(=O)(O)Oc1ccc([N+](=O)[O-])cc1)S(=O)(=O)c1cccs1.N [Compound 47, [(2-Thiophenesulfonyl-N-methylamino)methyl]-phosphonic acid mono-(4-nitrophenyl) ester ammonium salt]
IC50 [1]: 276 µM
Synergy Class C E. Cl ([2]; inhibitor 10 μg/mL): 2
Synergy Class A H. In. [3]: 1

CC(C)C(NS(=O)(=O)c1cccs1)P(=O)(O)Oc1ccc([N+](=O)[O-])cc1 (stereo not drawn) [Compound 52, [2-Methyl-1-thiophene-2-sulfonylamino)-propyl]-phosphonic acid mono-(4-nitrophenyl) ester ammonium salt]
IC50 [1]: 1400 µM
Synergy Class C E. Cl ([2]; inhibitor 1 μg/mL): 2
Synergy Class C E. Cl ([2]; inhibitor 10 μg/mL): 4
Synergy Class A H. In. [3]: 1
Synergy Class A St. A. [4]: 1

N.O=[N+]([O-])c1ccc(OP(=O)(O)C(NS(=O)(=O)c2cccs2)c2ccccc2)cc1 (stereo not drawn) [Compound 53, [Phenyl-(thiophene-2-sulfonylamino)-methyl]-phosphonic acid mono-(4-nitrophenyl) ester ammonium salt]
IC50 [1]: 363 µM
Synergy Class C E. Cl ([2]; inhibitor 1 μg/mL): 2/2
Synergy Class C E. Cl ([2]; inhibitor 10 μg/mL): 2/2
Synergy Class A H. In. [3]: 1
Synergy Class A St. A. [4]: 1

CC(C)C(NS(=O)(=O)c1cccs1)P(=O)(O)Oc1cccnc1Cl.N (stereo not drawn) [Compound 54, [2-Methyl-1-(thiophene-2-sulfonylamino)-propyl]-phosphonic acid mono-(2-chloropyridin-3-yl) ester ammonium salt]
IC50 [1]: 1800 µM
Synergy Class C E. Cl ([2]; inhibitor 1 μg/mL): 1
Synergy Class C E. Cl ([2]; inhibitor 10 μg/mL): 2
Synergy Class A H. In. [3]: 1
Synergy Class A St. A. [4]: 1

N.O=P(O)(Oc1cccnc1Cl)C(NS(=O)(=O)c1cccs1)c1ccccc1 (stereo not drawn) [Compound 60, [Phenyl-(thiophene-2-sulfonylamino)-methyl]-phosphonic acid mono-(2-chloropyridin-3-yl) ester ammonium salt]
IC50 [1]: 603 µM
Synergy Class C E. Cl ([2]; inhibitor 1 μg/mL): 1
Synergy Class C E. Cl ([2]; inhibitor 10 μg/mL): 2
Synergy Class A H. In. [3]: 1
Synergy Class A St. A. [4]: 1

O=[N+]([O-])c1ccc(OP(=O)(O)CNS(=O)(=O)c2cc3c(Cl)ccc(Cl)c3s2)cc1 [Compound 128, (5,8-dichlorobenzothiophene-2-sulfonyl)aminomethylphosphonic acid mono-(4-nitrophenyl) ester ammonium salt]
IC50 [1]: 0.1 µM
Synergy Class C E. Cl ([2]; inhibitor 10 μg/mL): 16
Synergy Resistant Ent. Cloacae ([5]; inhibitor 1 μg/mL): 1
Synergy Resistant Ent. Cloacae ([5]; inhibitor 10 μg/mL): 5
Synergy Resistant Pseudo. ([6]; inhibitor 1 μg/mL): 1
Synergy Resistant Pseudo. ([6]; inhibitor 10 μg/mL): 1
Synergy Intermed. Pseudo. ([7]; inhibitor 1 μg/mL): 1
Synergy Intermed. Pseudo. ([7]; inhibitor 10 μg/mL): 2
Synergy Resistant Stenotro. ([8]; inhibitor 1 μg/mL): 1
Synergy Resistant Stenotro. ([8]; inhibitor 10 μg/mL): 1
Synergy Intermed. Stenotro. ([9]; inhibitor 1 μg/mL): 1
Synergy Intermed. Stenotro. ([9]; inhibitor 10 μg/mL): 2
logP (physchem): 0.45

CN(CP(=O)(O)Oc1ccc([N+](=O)[O-])cc1)S(=O)(=O)c1cc2ccccc2s1.N [Compound 142, [(2-Benzothiophenesulfonyl-N-methylamino)-methyl]-phosphonic acid mono-(4-nitrophenyl) ester ammonium salt]
IC50 [1]: 1300 µM
Synergy Class C E. Cl ([2]; inhibitor 10 μg/mL): 2
logP (physchem): -0.091

O=[N+]([O-])c1ccc(OP(=O)(O)CN(Cc2ccccc2)S(=O)(=O)c2cc3ccccc3s2)cc1 [Compound 145, (2-Benzothiophenesulfonyl-N-benzylamino)-methyl]-phosphonic acid mono-(4-nitrophenyl) ester ammonium salt]
IC50 [1]: 94 µM
Synergy Class C E. Cl ([2]; inhibitor 10 μg/mL): 4
logP (physchem): 0.86

O=[N+]([O-])c1ccc(OP(=O)(O)CNS(=O)(=O)c2ccccc2)cc1 [compound 7]
IC50 [1]: 4 µM

O=[N+]([O-])c1ccc(OP(=O)(O)CNS(=O)(=O)c2ccc([N+](=O)[O-])cc2)cc1 [compound 12]
IC50 [1]: 10 µM

O=[N+]([O-])c1ccc(OP(=O)(O)CNS(=O)(=O)c2cccs2)cc1 [compound 15]
IC50 [1]: 18 µM

O=[N+]([O-])c1ccc(OP(=O)(O)CNS(=O)(=O)c2ccccc2Br)cc1 [compound 23]
IC50 [1]: 14 µM

O=[N+]([O-])c1ccc(OP(=O)(O)CNS(=O)(=O)c2ccccn2)cc1 [compound 31]
IC50 [1]: 136 µM

O=P(O)(CNS(=O)(=O)c1cccs1)Oc1cccc(Cl)c1 [compound 48]
IC50 [1]: 189 µM

O=P(O)(CNS(=O)(=O)c1ccsc1)Oc1cccnc1 [compound 55]
IC50 [1]: 3600 µM

O=[N+]([O-])c1ccc(OP(=O)(O)CNS(=O)(=O)c2cc3ccccc3s2)cc1 [compound 77]
IC50 [1]: 0.4 µM

CN(C)c1cccc(OP(=O)(O)CNS(=O)(=O)c2cccs2)c1 [compound 78]
IC50 [1]: 3000 µM

O=[N+]([O-])c1ccc(OP(=O)(O)NNS(=O)(=O)c2ccccc2)cc1 [compound 189]
IC50 [1, 11]: 62 µM

[(2-Benzothiophenesulfonyl-N-ethylamino)-methyl]-phosphonic acid mono-(4-nitrophenyl) ester ammonium salt [Compound 144]
IC50 [1, 11]: 463 µM
Log P [10]: −0.036

[(2-Benzothiophenesulfonyl-N-phenylethylamino)-methyl]-phosphonic acid mono-(4-nitrophenyl) ester ammonium salt [Compound 143]
IC50 [1, 11]: 133 µM
Log P [10]: 1.17
